This series can be described thus: Solubility of compound of formula (I) in flavor solvents (Crystalline PV instrument, temperature solubility curve). The format is physicochemical. The following applies: 22° C. The method, then: A precise amount of the powder was weighed into a transparent 8 mL tube, 3 g of solvent was added, and the tube was sealed with a cap equipped with an integrated overhead stirrer. The tube was immediately transferred to a Crystalline PV instrument (Technobis Crystallization Systems, The Netherlands), and placed into a precooled reactor at 3° C. The sample was heated and stirred in the reactor at a rate of 0.1° C./min up to 60° C. Each reactor of the Crystalline PV instrument is equipped with an LED sensor and a digital camera, and data is acquired as real-time transmittance to detect turbidity or as video images for visualization. The solubility temperature is reached when all particles have dissolved. In order to establish a temperature solubility curve, at least 4 samples with different concentrations are measured. The data are fitted to an exponential curve according to the model of Hoffmann, and solubility as a function of temperature can be calculated by extrapolation. Under this method, the solubility of N-(1H-pyrazol-3-yl)-N-(thiophen-2-ylmethyl)-2-(p-tolyloxy)acetamide in different solvents, which could be used in flavor application, was measured.

SMILES strings stand for the structures.

This passage reports Solubility results from US11174249B2, “Cooling composition” (FIRMENICH SA, priority 2017, dated 2021).

For `Cc1ccc(OCC(=O)N(Cc2cccs2)c2ccn[nH]2)cc1` [N-(1H-pyrazol-3-yl)-N-(thiophen-2-ylmethyl)-2-(p-tolyloxy)acetamide], the Solubility by setting is: (in Augeo Clean Multi) 5.7%; (in Dowanol TPM) 5.4%; (in Ethanol abs.) 3.3%; (in Ethyl lactate) 8.6%; (in Mint piperita) 2.1%; (in PG) 0.4%. In addition, the Solubility is 1.2% (in triacetin) and 3.1% (in triethyl citrate).

In turn, `CCc1ccc(OCC(=O)N(Cc2cccs2)c2cc[nH]n2)cc1` [2-(4-ethylphenoxy)-N-(1H-pyrazol-3-yl)-N-(thiophen-2-ylmethyl)acetamide] showed a Solubility (in Ethyl lactate) of 26.1%.
